Reference: US12077503B2, “Substituted cyclic amides and their use as herbicides” (FMC CORPORATION, priority 2015, dated 2024)

What was measured:
Format in all cases: in vivo
Kochia (Kochia scoparia) [1] = assay: Test A preemergence; settings: Bassia scoparia, pre-emergence, 240 h; for pest or weed control at 500 g/ha: 500 g ai/ha, preemergence; for pest or weed control at 125 g/ha: Preemergence, 125 g ai/ha
Method in brief: (§1)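 Seeds sprayed preemergence with a directed soil spray, or plants at 2 to 10 cm height and one- to two-leaf stage sprayed postemergence, with test chemicals in a non-phytotoxic solvent mixture containing surfactant, in loam soil–sand blend. Injury rated visually against untreated controls after about 10 d in greenhouse, 0 (no effect) to 100 (complete control).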

[2] = tested on: giant foxtail (Setaria faberii); assay: Test A preemergence; settings: Setaria faberi, pre-emergence, 240 h; for pest or weed control at 500 g/ha: 500 g ai/ha, preemergence; for pest or weed control at 125 g/ha: Preemergence, 125 g ai/ha
Method in brief: as §1

[3] = tested on: pigweed (Amaranthus retroflexus); assay: Test A preemergence; settings: Amaranthus retroflexus, pre-emergence, 240 h; for pest or weed control at 500 g/ha: 500 g ai/ha, preemergence; for pest or weed control at 125 g/ha: Preemergence, 125 g ai/ha
[4] = tested on: ragweed (common ragweed, Ambrosia elatior); assay: Test A preemergence; settings: Ambrosia artemisiifolia, pre-emergence, 240 h; for pest or weed control at 500 g/ha: 500 g ai/ha, preemergence; for pest or weed control at 125 g/ha: Preemergence, 125 g ai/ha
Method in brief: as §1

[5] = tested on: ryegrass, Italian (Italian ryegrass, Lolium multiflorum); assay: Test A preemergence; settings: Lolium multiflorum, pre-emergence, 240 h, 0 to 100 scale (0 no effect, 100 complete control), read-out: Plant response rating, Ryegrass, Italian; for pest or weed control at 125 g/ha: Preemergence, 125 g ai/ha
Method in brief: as §1

[6] = tested on: Galium (catchweed bedstraw, Galium aparine); assay: Test A postemergence; settings: Galium, post-emergence, 240 h, Postemergence; for pest or weed control at 125 g/ha: 125 g ai/ha, visual rating about 10 d after treatment, read-out: Galium plant response rating (0 to 100 scale); for pest or weed control at 500 g/ha: 500 g ai/ha, visual injury, 0 to 100 scale (0 no effect, 100 complete control), approx. 10 d, read-out: Plant response rating, Galium
Method in brief: as §1

Kochia (Kochia scoparia) [7] = assay: Test A postemergence; settings: Bassia scoparia, post-emergence, 240 h, Postemergence; for pest or weed control at 125 g/ha: 125 g ai/ha, visual rating about 10 d after treatment, read-out: Kochia plant response rating (0 to 100 scale); for pest or weed control at 500 g/ha: 500 g ai/ha, visual injury, 0 to 100 scale (0 no effect, 100 complete control), approx. 10 d, read-out: Plant response rating, Kochia
Method in brief: as §1

[8] = tested on: barnyardgrass (Echinochloa crus-galli); assay: Test A postemergence; settings: Echinochloa crus-galli, post-emergence, 240 h, Postemergence; for pest or weed control at 125 g/ha: 125 g ai/ha, visual rating about 10 d after treatment, read-out: Barnyardgrass plant response rating (0 to 100 scale, 0 no effect, 100 complete control); for pest or weed control at 500 g/ha: 500 g ai/ha, visual injury, 0 to 100 scale (0 no effect, 100 complete control), approx. 10 d, read-out: Plant response rating, Barnyardgrass
Method in brief: as §1

[9] = tested on: blackgrass (Alopecurus myosuroides); assay: Test A postemergence; settings: Alopecurus myosuroides, post-emergence, 240 h, Postemergence; for pest or weed control at 125 g/ha: 125 g ai/ha, visual rating about 10 d after treatment, read-out: Blackgrass plant response rating (0 to 100 scale); for pest or weed control at 500 g/ha: 500 g ai/ha, visual injury, 0 to 100 scale (0 no effect, 100 complete control), approx. 10 d, read-out: Plant response rating, Blackgrass
Method in brief: as §1

corn (Zea mays) = assay: Test A postemergence; settings: Zea mays, post-emergence, 240 h, Postemergence; for plant injury at 125 g/ha: 125 g ai/ha, visual rating about 10 d after treatment, read-out: Corn plant response rating (0 to 100 scale); for Corn plant response rating (crop injury, 0 = no effect, 100 = complete kill) at 500 g/ha: 500 g ai/ha, visual injury, 0 to 100 scale (0 no effect, 100 complete control), approx. 10 d
Method in brief: as §1

[10] = tested on: giant foxtail (Setaria faberii); assay: Test A postemergence; settings: Setaria faberi, post-emergence, 240 h, Postemergence; for pest or weed control at 125 g/ha: 125 g ai/ha, visual rating about 10 d after treatment, read-out: Foxtail, Giant plant response rating (0 to 100 scale); for pest or weed control at 500 g/ha: 500 g ai/ha, visual injury, 0 to 100 scale (0 no effect, 100 complete control), approx. 10 d, read-out: Plant response rating, Foxtail, Giant
Method in brief: as §1

[11] = tested on: pigweed (Amaranthus retroflexus); assay: Test A postemergence; settings: Amaranthus retroflexus, post-emergence, 240 h, Postemergence; for pest or weed control at 125 g/ha: 125 g ai/ha, visual rating about 10 d after treatment, read-out: Pigweed plant response rating (0 to 100 scale); for pest or weed control at 500 g/ha: 500 g ai/ha, visual injury, 0 to 100 scale (0 no effect, 100 complete control), approx. 10 d, read-out: Plant response rating, Pigweed
Method in brief: as §1

[12] = tested on: ragweed (common ragweed, Ambrosia elatior); assay: Test A postemergence; settings: Ambrosia artemisiifolia, post-emergence, 240 h, Postemergence; for pest or weed control at 125 g/ha: 125 g ai/ha, visual rating about 10 d after treatment, read-out: Ragweed plant response rating (0 to 100 scale); for pest or weed control at 500 g/ha: 500 g ai/ha, visual injury, 0 to 100 scale (0 no effect, 100 complete control), approx. 10 d, read-out: Plant response rating, Ragweed
Method in brief: as §1

[13] = tested on: ryegrass, Italian (Italian ryegrass, Lolium multiflorum); assay: Test A postemergence; settings: Lolium multiflorum, post-emergence, 240 h, Postemergence; for pest or weed control at 125 g/ha: 125 g ai/ha, visual rating about 10 d after treatment, read-out: Ryegrass, Italian plant response rating (0 to 100 scale); for pest or weed control at 500 g/ha: 500 g ai/ha, visual injury, 0 to 100 scale (0 no effect, 100 complete control), approx. 10 d, read-out: Plant response rating, Ryegrass, Italian
Method in brief: as §1

[14] = tested on: wheat (Triticum aestivum); assay: Test A postemergence; settings: Triticum aestivum, post-emergence, 240 h, Postemergence; for plant injury at 125 g/ha: 125 g ai/ha, visual rating about 10 d after treatment, read-out: Wheat plant response rating (0 to 100 scale); for plant injury at 500 g/ha: 500 g ai/ha, visual injury, 0 to 100 scale (0 no effect, 100 complete control), approx. 10 d, read-out: Plant response rating, Wheat
Method in brief: as §1

[15] = 0 to 100 scale (0 no effect, 100 complete control), read-out: Plant response rating, Kochia
[16] = 0 to 100 scale (0 no effect, 100 complete control), read-out: Plant response rating, Foxtail, Giant
[17] = 0 to 100 scale (0 no effect, 100 complete control), read-out: Plant response rating, Pigweed
[18] = 0 to 100 scale (0 no effect, 100 complete control), read-out: Plant response rating, Ragweed

`C=CN1C[C@H](c2ccc(C)c(F)c2)[C@@H](C(=O)Nc2cccc(F)c2F)C1=O` (racemic) [Compound 1332] showed a pest or weed control at 500 g/ha (Kochia (Kochia scoparia) [1]; [15]) of 0%, a pest or weed control at 125 g/ha (Kochia (Kochia scoparia) [1]; [15]) of 0% and a pest or weed control at 500 g/ha [2, 16] of 90%. The pest or weed control at 125 g/ha [2, 16] was 80%, the pest or weed control at 500 g/ha [3, 17] was 0% and the pest or weed control at 125 g/ha [3, 17] was 0%. The pest or weed control at 500 g/ha [4, 18] was 0%, the pest or weed control at 125 g/ha [4, 18] was 0% and the pest or weed control at 500 g/ha ([5]; 500 g ai/ha, preemergence) was 0%. It also gave a pest or weed control at 125 g/ha [5] of 0%, a pest or weed control at 125 g/ha [6] of 0% and a pest or weed control at 500 g/ha [6] of 20%. For the same compound, the pest or weed control at 125 g/ha (Kochia (Kochia scoparia) [7]) was 0%, the pest or weed control at 500 g/ha (Kochia (Kochia scoparia) [7]) was 0% and the pest or weed control at 125 g/ha [8] was 50%. It also gave a pest or weed control at 500 g/ha [8] of 60%, a pest or weed control at 125 g/ha [9] of 0% and a pest or weed control at 500 g/ha [9] of 30%. The plant injury at 125 g/ha (corn (Zea mays)) was 0%, the Corn plant response rating (crop injury, 0 = no effect, 100 = complete kill) at 500 g/ha (corn (Zea mays)) was 0% and the pest or weed control at 125 g/ha [10] was 40%. For the same compound, the pest or weed control at 500 g/ha [10] was 60%, the pest or weed control at 125 g/ha [11] was 0% and the pest or weed control at 500 g/ha [11] was 0%. For the same compound, the pest or weed control at 125 g/ha [12] was 0%, the pest or weed control at 500 g/ha [12] was 20% and the pest or weed control at 125 g/ha [13] was 0%. For the same compound, the pest or weed control at 500 g/ha [13] was 0%, the plant injury at 125 g/ha [14] was 0% and the plant injury at 500 g/ha [14] was 20%.

In the case of `CN1C[C@H](c2cccc(C(C)(F)F)c2)[C@@H](C(=O)Nc2ccccc2S(C)(=O)=O)C1=O` [Compound 1318], the pest or weed control at 500 g/ha (Kochia (Kochia scoparia) [1]; 0 to 100 scale where 0 is no effect and 100 is complete control, read-out: Kochia plant response rating) was 80%, the pest or weed control at 125 g/ha (Kochia (Kochia scoparia) [1]; [15]) was 70% and the pest or weed control at 500 g/ha ([2]; 0 to 100 scale where 0 is no effect and 100 is complete control, read-out: Foxtail, Giant plant response rating) was 90%. For the same compound, the pest or weed control at 125 g/ha [2, 16] was 90%, the pest or weed control at 500 g/ha ([3]; 0 to 100 scale where 0 is no effect and 100 is complete control, read-out: Pigweed plant response rating) was 80% and the pest or weed control at 125 g/ha [3, 17] was 70%. For the same compound, the pest or weed control at 500 g/ha ([4]; 0 to 100 scale where 0 is no effect and 100 is complete control, read-out: Ragweed plant response rating) was 90%, the pest or weed control at 125 g/ha [4, 18] was 0% and the pest or weed control at 125 g/ha [5] was 40%. The pest or weed control at 125 g/ha [6] was 60%, the pest or weed control at 500 g/ha [6] was 60% and the pest or weed control at 125 g/ha (Kochia (Kochia scoparia) [7]) was 0%. For the same compound, the pest or weed control at 500 g/ha (Kochia (Kochia scoparia) [7]) was 40%, the pest or weed control at 125 g/ha [8] was 80% and the pest or weed control at 500 g/ha [8] was 90%. It also gave a pest or weed control at 125 g/ha [9] of 70%, a pest or weed control at 500 g/ha [9] of 70% and a plant injury at 125 g/ha (corn (Zea mays)) of 60%. For the same compound, the Corn plant response rating (crop injury, 0 = no effect, 100 = complete kill) at 500 g/ha (corn (Zea mays)) was 80%, the pest or weed control at 125 g/ha [10] was 90% and the pest or weed control at 500 g/ha [10] was 90%. For the same compound, the pest or weed control at 125 g/ha [11] was 30%, the pest or weed control at 500 g/ha [11] was 40% and the pest or weed control at 125 g/ha [12] was 10%. The pest or weed control at 500 g/ha [12] was 60%, the pest or weed control at 125 g/ha [13] was 20% and the pest or weed control at 500 g/ha [13] was 40%. The plant injury at 125 g/ha [14] was 50% and the plant injury at 500 g/ha [14] was 80%.
